Assay results: ChEMBL document CHEMBL1201862, “PubChem BioAssay data set” (2004)
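Each compound was tested at five concentrations against cells in 96-well plates for 48 hours. At the GI50, growth is halved.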 Active and inactive are the calls of the source. Cut-off read from the data, not from the text of the source: active = GI50 up to about 1.1 µM and inactive = higher.

Key:
Assay in all cases: growth of human tumour cells (NCI), 48 h
OVCAR-3 = system: OVCAR-3
SW-620 = system: SW-620
SK-MEL-2 = system: SK-MEL-2
RXF 393 = system: RXF 393
OVCAR-8 = system: OVCAR-8
M19-MEL = system: M19-MEL
UACC-257 = system: UACC-257
NCI-H522 = system: NCI-H522
NCI-H23 = system: NCI-H23
HCT-116 = system: HCT-116
HOP-62 = system: HOP-62
SNB-19 = system: SNB-19
EKVX = system: EKVX
Malme-3M = system: Malme-3M
K562 = system: K562
UACC-62 = system: UACC-62
HOP-92 = system: HOP-92
DMS-273 = system: DMS-273
MOLT-4 = system: MOLT-4
SNB-75 = system: SNB-75
HL-60 = system: HL-60
KM-20L2 = system: KM-20L2
OVCAR-5 = system: OVCAR-5
XF498 = system: XF498
KM12 = system: KM12
LXFL 529 = system: LXFL 529
COLO 205 = system: COLO 205
A549 = system: A549
DLD-1 = system: DLD-1
SNB-78 = system: SNB-78
LOX IMVI = system: LOX IMVI
CCRF-CEM = system: CCRF-CEM
M14 = system: M14
A498 = system: A498
TK-10 = system: TK-10
UO-31 = system: UO-31
SK-MEL-5 = system: SK-MEL-5
SK-MEL-28 = system: SK-MEL-28
HCC 2998 = system: HCC 2998
786-0 = system: 786-0
ACHN = system: ACHN
IGROV-1 = system: IGROV-1
HT-29 = system: HT-29
SF-539 = system: SF-539
U-251 = system: U-251
RPMI-8226 = system: RPMI-8226
SK-OV-3 = system: SK-OV-3
DMS-114 = system: DMS-114
NCI-H460 = system: NCI-H460
OVCAR-4 = system: OVCAR-4
SR = system: SR
HCT-15 = system: HCT-15
SF-268 = system: SF-268
SF-295 = system: SF-295
NCI-H226 = system: NCI-H226
SN12C = system: SN12C
CAKI-1 = system: CAKI-1

With `CCOC(=O)C(C)NC(=O)NC12CC3CC(CC(F)(C3)C1)C2` (centres undefined) the GI50 (OVCAR-3) was 42 µM (inactive), the GI50 (SW-620) was > 100 µM (inactive) and the GI50 (SK-MEL-2) was > 100 µM (inactive). The GI50 (RXF 393) was 27.5 µM (inactive), the GI50 (OVCAR-8) was > 100 µM (inactive) and the GI50 (M19-MEL) was 61.1 µM (inactive). The GI50 (UACC-257) was 70.1 µM (inactive), the GI50 (NCI-H522) was 65.2 µM (inactive) and the GI50 (NCI-H23) was > 100 µM (inactive). The GI50 (HCT-116) was > 100 µM (inactive), the GI50 (HOP-62) was > 100 µM (inactive) and the GI50 (SNB-19) was > 100 µM (inactive). The GI50 (EKVX) was > 100 µM (inactive), the GI50 (Malme-3M) was 63 µM (inactive) and the GI50 (K562) was > 100 µM (inactive). The GI50 (UACC-62) was > 100 µM (inactive), the GI50 (HOP-92) was 11.5 µM (inactive) and the GI50 (DMS-273) was > 100 µM (inactive). The GI50 (MOLT-4) was 62.1 µM (inactive), the GI50 (SNB-75) was 65.3 µM (inactive) and the GI50 (HL-60) was 61.5 µM (inactive). For the same molecule, the GI50 (KM-20L2) was > 100 µM (inactive), the GI50 (OVCAR-5) was > 100 µM (inactive) and the GI50 (XF498) was 27.4 µM (inactive). The GI50 (KM12) was > 100 µM (inactive), the GI50 (LXFL 529) was > 100 µM (inactive) and the GI50 (COLO 205) was 41.7 µM (inactive). For the same molecule, the GI50 (A549) was > 100 µM (inactive), the GI50 (DLD-1) was > 100 µM (inactive) and the GI50 (SNB-78) was 27.9 µM (inactive). For the same molecule, the GI50 (LOX IMVI) was > 100 µM (inactive), the GI50 (CCRF-CEM) was 76.7 µM (inactive) and the GI50 (M14) was 63.8 µM (inactive). For the same molecule, the GI50 (A498) was > 100 µM (inactive), the GI50 (TK-10) was > 100 µM (inactive) and the GI50 (UO-31) was 40.2 µM (inactive). The GI50 (SK-MEL-5) was 46 µM (inactive), the GI50 (SK-MEL-28) was > 100 µM (inactive) and the GI50 (HCC 2998) was 31.8 µM (inactive). The GI50 (786-0) was > 100 µM (inactive), the GI50 (ACHN) was > 100 µM (inactive) and the GI50 (IGROV-1) was > 100 µM (inactive). The GI50 (HT-29) was > 100 µM (inactive), the GI50 (SF-539) was > 100 µM (inactive) and the GI50 (U-251) was > 100 µM (inactive). For the same molecule, the GI50 (RPMI-8226) was 88.3 µM (inactive), the GI50 (SK-OV-3) was > 100 µM (inactive) and the GI50 (DMS-114) was > 100 µM (inactive). The GI50 (NCI-H460) was > 100 µM (inactive).

In the case of `CCOC(=O)c1oc2ccc(OC)c3c2c1CCC3`, the GI50 (OVCAR-3) is reported as > 100 µM (inactive), the GI50 (SW-620) is reported as > 100 µM (inactive) and the GI50 (OVCAR-4) is reported as 51.6 µM (inactive). The GI50 (SR) was 37.9 µM (inactive), the GI50 (SK-MEL-2) was > 100 µM (inactive) and the GI50 (RXF 393) was 70 µM (inactive). The GI50 (OVCAR-8) was > 100 µM (inactive), the GI50 (M19-MEL) was > 100 µM (inactive) and the GI50 (UACC-257) was 13.7 µM (inactive). The GI50 (HCT-15) was > 100 µM, the GI50 (NCI-H522) was 67.3 µM (inactive) and the GI50 (NCI-H23) was 59.6 µM (inactive). The GI50 (HOP-62) was > 100 µM (inactive), the GI50 (SNB-19) was > 100 µM (inactive) and the GI50 (EKVX) was > 100 µM (inactive). For the same molecule, the GI50 (Malme-3M) was > 100 µM (inactive), the GI50 (K562) was 55 µM (inactive) and the GI50 (UACC-62) was > 100 µM (inactive). The GI50 (SF-268) was > 100 µM (inactive), the GI50 (HOP-92) was 41.6 µM (inactive) and the GI50 (SF-295) was > 100 µM (inactive). For the same molecule, the GI50 (DMS-273) was > 100 µM (inactive), the GI50 (MOLT-4) was 26.1 µM (inactive) and the GI50 (SNB-75) was > 100 µM (inactive). For the same molecule, the GI50 (HL-60) was > 100 µM (inactive), the GI50 (OVCAR-5) was 44.7 µM (inactive) and the GI50 (XF498) was > 100 µM (inactive). The GI50 (KM12) was > 100 µM (inactive), the GI50 (LXFL 529) was 65.6 µM (inactive) and the GI50 (COLO 205) was > 100 µM (inactive). The GI50 (A549) was > 100 µM (inactive), the GI50 (NCI-H226) was > 100 µM (inactive) and the GI50 (DLD-1) was 64.9 µM (inactive). The GI50 (SNB-78) was > 100 µM (inactive), the GI50 (LOX IMVI) was > 100 µM (inactive) and the GI50 (CCRF-CEM) was 46.7 µM (inactive). The GI50 (M14) was > 100 µM (inactive), the GI50 (A498) was > 100 µM (inactive) and the GI50 (TK-10) was 83.8 µM (inactive). For the same molecule, the GI50 (UO-31) was 32.1 µM (inactive), the GI50 (SK-MEL-5) was 84.7 µM (inactive) and the GI50 (SK-MEL-28) was > 100 µM (inactive). The GI50 (HCC 2998) was > 100 µM (inactive), the GI50 (786-0) was > 100 µM (inactive) and the GI50 (ACHN) was > 100 µM (inactive). For the same molecule, the GI50 (IGROV-1) was > 100 µM (inactive), the GI50 (HT-29) was > 10 µM (inactive) and the GI50 (SN12C) was > 100 µM (inactive). The GI50 (SF-539) was > 100 µM (inactive), the GI50 (U-251) was > 100 µM (inactive) and the GI50 (RPMI-8226) was > 100 µM (inactive). For the same molecule, the GI50 (SK-OV-3) was > 100 µM (inactive), the GI50 (DMS-114) was > 100 µM (inactive) and the GI50 (NCI-H460) was > 100 µM (inactive).

With `Nc1ccc(C(=O)CC2(O)C(=O)Nc3ccccc32)cc1` (centres undefined) the GI50 (OVCAR-3) was > 100 µM (inactive), the GI50 (SW-620) was > 100 µM (inactive) and the GI50 (OVCAR-4) was > 100 µM (inactive). The GI50 (SK-MEL-2) was > 100 µM (inactive), the GI50 (RXF 393) was > 100 µM (inactive) and the GI50 (OVCAR-8) was > 100 µM (inactive). For the same molecule, the GI50 (M19-MEL) was > 100 µM (inactive), the GI50 (UACC-257) was > 100 µM (inactive) and the GI50 (HCT-15) was > 100 µM. The GI50 (NCI-H522) was 29.7 µM (inactive), the GI50 (NCI-H23) was > 100 µM (inactive) and the GI50 (HCT-116) was > 100 µM (inactive). The GI50 (CAKI-1) was > 100 µM (inactive), the GI50 (SNB-19) was > 100 µM (inactive) and the GI50 (EKVX) was > 100 µM (inactive). For the same molecule, the GI50 (Malme-3M) was > 100 µM (inactive), the GI50 (K562) was > 100 µM (inactive) and the GI50 (UACC-62) was > 100 µM (inactive). The GI50 (SF-268) was > 100 µM (inactive), the GI50 (HOP-92) was > 100 µM (inactive) and the GI50 (SF-295) was > 100 µM (inactive). The GI50 (DMS-273) was > 100 µM (inactive), the GI50 (MOLT-4) was > 100 µM (inactive) and the GI50 (SNB-75) was 92.9 µM (inactive). For the same molecule, the GI50 (HL-60) was 38.9 µM (inactive), the GI50 (KM-20L2) was > 100 µM (inactive) and the GI50 (OVCAR-5) was > 100 µM (inactive). The GI50 (XF498) was > 100 µM (inactive), the GI50 (LXFL 529) was > 100 µM (inactive) and the GI50 (COLO 205) was > 100 µM (inactive). The GI50 (A549) was > 100 µM (inactive), the GI50 (NCI-H226) was > 100 µM (inactive) and the GI50 (DLD-1) was > 100 µM (inactive). For the same molecule, the GI50 (SNB-78) was > 100 µM (inactive), the GI50 (LOX IMVI) was > 100 µM (inactive) and the GI50 (M14) was > 100 µM (inactive). The GI50 (A498) was > 100 µM (inactive), the GI50 (TK-10) was > 100 µM (inactive) and the GI50 (UO-31) was > 100 µM (inactive). For the same molecule, the GI50 (SK-MEL-5) was > 100 µM (inactive), the GI50 (SK-MEL-28) was > 100 µM (inactive) and the GI50 (786-0) was > 100 µM (inactive). The GI50 (ACHN) was > 100 µM (inactive), the GI50 (IGROV-1) was > 100 µM (inactive) and the GI50 (HT-29) was > 100 µM (inactive). For the same molecule, the GI50 (SN12C) was > 100 µM (inactive), the GI50 (SF-539) was > 100 µM (inactive) and the GI50 (RPMI-8226) was > 100 µM (inactive). For the same molecule, the GI50 (SK-OV-3) was > 100 µM (inactive), the GI50 (DMS-114) was > 100 µM (inactive) and the GI50 (NCI-H460) was > 100 µM (inactive).
